Source: PubChem BioAssay (NCI)
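Grown in 96-well plates, cells were treated for 48 hours with each compound at five concentrations. Insufficient inhibition: endpoint recorded as highest concentration tested. Abbreviation: GI50, concentration required for 50% inhibition of growth. TGI denotes the concentration required for complete inhibition of growth.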

Tests used:
Test in all cases: inhibition of tumour cell growth, NCI panel, 48 h
LOX IMVI melanoma = system: LOX IMVI melanoma
SK-MEL-28 melanoma = system: SK-MEL-28 melanoma
UACC-62 melanoma = system: UACC-62 melanoma
MCF7 breast = system: MCF7 breast
SNB-75 CNS = system: SNB-75 CNS
SW-620 colon = system: SW-620 colon
SF-295 CNS = system: SF-295 CNS
TK-10 renal = system: TK-10 renal
OVCAR-5 ovarian = system: OVCAR-5 ovarian
HCT-15 colon = system: HCT-15 colon
786-0 renal = system: 786-0 renal
PC-3 prostate = system: PC-3 prostate
KM12 colon = system: KM12 colon
NCI-H522 lung = system: NCI-H522 lung
HOP-92 NSCLC = system: HOP-92 NSCLC
COLO 205 colon = system: COLO 205 colon
HOP-62 NSCLC = system: HOP-62 NSCLC
RXF 393 renal = system: RXF 393 renal
SK-MEL-2 melanoma = system: SK-MEL-2 melanoma
M14 melanoma = system: M14 melanoma
DU-145 prostate = system: DU-145 prostate
NCI/ADR-RES ovarian = system: NCI/ADR-RES ovarian
BT-549 breast = system: BT-549 breast
CCRF-CEM leukemia = system: CCRF-CEM leukemia
HCC-2998 colon = system: HCC-2998 colon
NCI-H23 lung = system: NCI-H23 lung
OVCAR-4 ovarian = system: OVCAR-4 ovarian
T-47D breast = system: T-47D breast
SR leukemia = system: SR leukemia
U251 CNS = system: U251 CNS
A498 renal = system: A498 renal
SF-539 CNS = system: SF-539 CNS
SF-268 CNS = system: SF-268 CNS
UO-31 renal = system: UO-31 renal
HS 578T breast = system: HS 578T breast
OVCAR-3 ovarian = system: OVCAR-3 ovarian
UACC-257 melanoma = system: UACC-257 melanoma
HCT-116 colon = system: HCT-116 colon
RPMI-8226 leukemia = system: RPMI-8226 leukemia
IGROV1 ovarian = system: IGROV1 ovarian
HT29 colon = system: HT29 colon
SK-OV-3 ovarian = system: SK-OV-3 ovarian
K-562 leukemia = system: K-562 leukemia
NCI-H460 lung = system: NCI-H460 lung
NCI-H226 lung = system: NCI-H226 lung
MALME-3M melanoma = system: MALME-3M melanoma
HL-60(TB) leukemia = system: HL-60(TB) leukemia
CAKI-1 renal = system: CAKI-1 renal
ACHN renal = system: ACHN renal
A549 NSCLC = system: A549 NSCLC
SNB-19 CNS = system: SNB-19 CNS
MOLT-4 leukemia = system: MOLT-4 leukemia
SK-MEL-5 melanoma = system: SK-MEL-5 melanoma
SN12C renal = system: SN12C renal
EKVX NSCLC = system: EKVX NSCLC
MDA-MB-231 breast = system: MDA-MB-231 breast
MDA-MB-435 = system: MDA-MB-435
OVCAR-8 ovarian = system: OVCAR-8 ovarian

`COC(=O)[C@]12CC[C@@H](C)[C@H](C)[C@@H]1C1=CC[C@@H]3[C@@]4(C)C(C=O)=C[C@@](C)(COC(=O)c5ccco5)C4=CC[C@@]3(C)[C@]1(C)CC2` showed a GI50 (LOX IMVI melanoma) of 1.7 µM, a TGI (LOX IMVI melanoma) of 3.15 µM and a GI50 (SK-MEL-28 melanoma) of 0.053 µM. The TGI (SK-MEL-28 melanoma) was 3.01 µM, the GI50 (UACC-62 melanoma) was 0.0831 µM and the TGI (UACC-62 melanoma) was 2.24 µM. The GI50 (MCF7 breast) was 2.77 µM, the TGI (MCF7 breast) was 10.3 µM and the GI50 (SNB-75 CNS) was 2.47 µM. It also gave a TGI (SNB-75 CNS) of 25.5 µM, a GI50 (SW-620 colon) of 3.1 µM and a TGI (SW-620 colon) of 11.2 µM. It also gave a GI50 (SF-295 CNS) of 2.39 µM, a TGI (SF-295 CNS) of 8.83 µM and a GI50 (TK-10 renal) of 2.42 µM. For the same compound, the TGI (TK-10 renal) was 12.5 µM, the GI50 (OVCAR-5 ovarian) was 2.32 µM and the TGI (OVCAR-5 ovarian) was 6.99 µM. For the same compound, the GI50 (HCT-15 colon) was 1.91 µM, the TGI (HCT-15 colon) was 4.09 µM and the GI50 (786-0 renal) was 2.97 µM. The TGI (786-0 renal) was 9.17 µM, the GI50 (PC-3 prostate) was 2.97 µM and the TGI (PC-3 prostate) was > 100 µM. The GI50 (KM12 colon) was 3.27 µM, the TGI (KM12 colon) was 19.9 µM and the GI50 (NCI-H522 lung) was 3.31 µM. It also gave a TGI (NCI-H522 lung) of 10.9 µM, a GI50 (HOP-92 NSCLC) of 0.671 µM and a TGI (HOP-92 NSCLC) of 7.71 µM. The GI50 (COLO 205 colon) was 0.0247 µM, the TGI (COLO 205 colon) was 0.0614 µM and the GI50 (HOP-62 NSCLC) was 3.4 µM. It also gave a TGI (HOP-62 NSCLC) of 13.6 µM, a GI50 (RXF 393 renal) of 1.7 µM and a TGI (RXF 393 renal) of 3.77 µM. The GI50 (SK-MEL-2 melanoma) was 0.273 µM, the TGI (SK-MEL-2 melanoma) was 0.743 µM and the GI50 (M14 melanoma) was 0.104 µM. For the same compound, the TGI (M14 melanoma) was 6.93 µM, the GI50 (DU-145 prostate) was 3.81 µM and the TGI (DU-145 prostate) was 15.9 µM. It also gave a GI50 (NCI/ADR-RES ovarian) of 4.84 µM, a TGI (NCI/ADR-RES ovarian) of 26.1 µM and a GI50 (BT-549 breast) of 4.93 µM. For the same compound, the TGI (BT-549 breast) was 32.4 µM, the GI50 (CCRF-CEM leukemia) was 2.87 µM and the TGI (CCRF-CEM leukemia) was 8.73 µM. The GI50 (HCC-2998 colon) was 2.76 µM, the TGI (HCC-2998 colon) was 7.17 µM and the GI50 (NCI-H23 lung) was 3.25 µM. It also gave a TGI (NCI-H23 lung) of 25.7 µM, a GI50 (OVCAR-4 ovarian) of 3.54 µM and a TGI (OVCAR-4 ovarian) of 22.4 µM. It also gave a GI50 (T-47D breast) of 2.68 µM, a TGI (T-47D breast) of 38.2 µM and a GI50 (SR leukemia) of 2.12 µM. It also gave a TGI (SR leukemia) of 6.66 µM, a GI50 (U251 CNS) of 2.06 µM and a TGI (U251 CNS) of 10.8 µM. The GI50 (A498 renal) was 2.81 µM, the TGI (A498 renal) was 16.9 µM and the GI50 (SF-539 CNS) was 2.57 µM. It also gave a TGI (SF-539 CNS) of 6.94 µM, a GI50 (SF-268 CNS) of 2.93 µM and a TGI (SF-268 CNS) of 9.92 µM. It also gave a GI50 (UO-31 renal) of 1.92 µM, a TGI (UO-31 renal) of 5.03 µM and a GI50 (HS 578T breast) of 3.72 µM. It also gave a TGI (HS 578T breast) of 34.1 µM, a GI50 (OVCAR-3 ovarian) of 2.17 µM and a TGI (OVCAR-3 ovarian) of 4.76 µM. For the same compound, the GI50 (UACC-257 melanoma) was 0.108 µM, the TGI (UACC-257 melanoma) was 0.65 µM and the GI50 (HCT-116 colon) was 2.2 µM. The TGI (HCT-116 colon) was 6.47 µM, the GI50 (RPMI-8226 leukemia) was 1.49 µM and the TGI (RPMI-8226 leukemia) was 5.01 µM. It also gave a GI50 (IGROV1 ovarian) of 4.06 µM, a TGI (IGROV1 ovarian) of 24.3 µM and a GI50 (HT29 colon) of 2.98 µM. It also gave a TGI (HT29 colon) of 9.47 µM, a GI50 (SK-OV-3 ovarian) of 8.41 µM and a TGI (SK-OV-3 ovarian) of 75.1 µM. For the same compound, the GI50 (K-562 leukemia) was 3.7 µM, the TGI (K-562 leukemia) was 17.3 µM and the GI50 (NCI-H460 lung) was 2.66 µM. The TGI (NCI-H460 lung) was 7.61 µM, the GI50 (NCI-H226 lung) was 2.33 µM and the TGI (NCI-H226 lung) was 7.79 µM. It also gave a GI50 (MALME-3M melanoma) of 0.0383 µM, a TGI (MALME-3M melanoma) of 0.444 µM and a GI50 (HL-60(TB) leukemia) of 2.85 µM. It also gave a TGI (HL-60(TB) leukemia) of 5.72 µM, a GI50 (CAKI-1 renal) of 3.32 µM and a TGI (CAKI-1 renal) of 25.2 µM. It also gave a GI50 (ACHN renal) of 0.118 µM, a TGI (ACHN renal) of 2.56 µM and a GI50 (A549 NSCLC) of 3.28 µM. The TGI (A549 NSCLC) was 14 µM, the GI50 (SNB-19 CNS) was 5.12 µM and the TGI (SNB-19 CNS) was > 100 µM. It also gave a GI50 (MOLT-4 leukemia) of 2.11 µM, a TGI (MOLT-4 leukemia) of 7.1 µM and a GI50 (SK-MEL-5 melanoma) of 0.189 µM. For the same compound, the TGI (SK-MEL-5 melanoma) was 1.17 µM, the GI50 (SN12C renal) was 4.04 µM and the TGI (SN12C renal) was > 100 µM. The GI50 (EKVX NSCLC) was 2.74 µM, the TGI (EKVX NSCLC) was 9.17 µM and the GI50 (MDA-MB-231 breast) was 2.73 µM. The TGI (MDA-MB-231 breast) was 9.47 µM, the GI50 (MDA-MB-435) was 0.0663 µM and the TGI (MDA-MB-435) was 2.96 µM. For the same compound, the GI50 (OVCAR-8 ovarian) was 3.67 µM and the TGI (OVCAR-8 ovarian) was 15.9 µM.
